Measurements as given in paper PMC3124137 (Experimental Diabetes Research, 2011).
Entries after “also recorded” stand apart in the source; their conditions may differ.

How the values were obtained:
[1] = test system: streptozotocin-induced type 1 diabetic rats; assay: Blood glucose (Accu-Chek); type: in vivo, rat (male Sprague-Dawley); conditions: STZ-diabetic rats; for effect of treatment on blood glucose level: one month of treatment, N = 24, P < .05 significant
Experimental: (§1) Groups D, DI, DE, DA, DIA and DEA were induced to type 1 diabetes mellitus by a single intravenous injection of streptozotocin (STZ; 85 mg/kg bw) (Sigma Chemical Co., Saint Louis, Mo, USA) in saline acidified to pH 4.5 with 0.1 M citrate buffer. Three days later, nonfasting blood glucose level was measured using Accu-Chek (Accu-Chek Instant Test; Roche Diagnostics GmbH, Mannheim, Germany); a level of ≥250 mg/dL confirmed type 1 diabetes mellitus.
(§2) All the animals were weighed weekly, and blood glucose levels were determined using Accu-Chek (Accu-Chek instant test, Roche Diagnostics GmbH, Mannheim, Germany) weekly during one month of treatment.

[2] = Body weight after one month of treatment; type: in vivo, rat (male Sprague-Dawley); conditions: STZ-diabetic rats, N = 24
Experimental: as §1, §2

[3] = Plasma active GLP-1 (ELISA); type: in vivo, rat (male Sprague-Dawley); conditions: STZ-diabetic rats; active GLP-1 (7–36 and 7–37) by ELISA over one month, N = 6
Experimental: as §1
Rats were anesthetized, and blood was collected from the sublingual vein on days 1, 7, 14, 21, and 28 of the treatment period, at a constant time range of 9 to 10 AM. […] A relative fluorescent unit (RFU) curve was plotted using these standards (Figure 1).

[4] = cited from earlier work
Description: (§3) Furthermore, this effect was eliminated upon the removal of the endothelial lining.

[5] = test system: GLP-1 receptors on the human coronary endothelial cells; parameters: method as in earlier work; conditions: ref 27 (Nystrom et al.); cited from earlier work
[6] = in vivo; cited from earlier work
Description: Incretin mimetics have been introduced in the market to be used as therapies for diabetes mellitus [[2 ...

[7] = test system: left ventricular hypertrophy; conditions: compared with angiotensin receptor blockers; cited from earlier work
Description: Diabetes mellitus currently affects more than 170 million individuals worldwide. Other than hyperglycemia, diabetes mellitus can cause a 2-3-fold increase in the occurrence of cardiovascular disease (CVD). […] Receptor signaling on the pancreas leads to enhanced insulin biosynth ...

[8] = target: T1, GLP-1 receptor at the coronary endothelium (Rattus norvegicus, UniProt P32301); assay: Perfusion of rat heart with ^125I-GLP-1: binding at the coronary endothelium (buffer alone, CHAPS-untreated); parameters: species or system rat (male Sprague-Dawley)
T1 construct: from tissue; host or cells: in situ perfused heart of male Sprague-Dawley rats (normal, streptozotocin-diabetic and treated groups)
T1 sequence (P32301 22-463): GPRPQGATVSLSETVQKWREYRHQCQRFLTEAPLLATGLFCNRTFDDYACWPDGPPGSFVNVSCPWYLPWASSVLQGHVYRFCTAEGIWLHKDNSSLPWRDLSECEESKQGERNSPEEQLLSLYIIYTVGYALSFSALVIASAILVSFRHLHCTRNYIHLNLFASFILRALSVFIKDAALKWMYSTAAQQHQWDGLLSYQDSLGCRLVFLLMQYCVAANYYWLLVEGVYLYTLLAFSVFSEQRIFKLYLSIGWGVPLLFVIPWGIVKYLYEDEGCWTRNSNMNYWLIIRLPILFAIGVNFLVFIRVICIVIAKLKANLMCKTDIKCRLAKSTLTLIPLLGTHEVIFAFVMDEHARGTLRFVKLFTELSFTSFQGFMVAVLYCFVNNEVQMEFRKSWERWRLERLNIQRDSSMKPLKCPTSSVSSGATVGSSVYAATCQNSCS
Experimental: (§4) In addition, the left and right lungs were tied in order to block the blood flow to them and to other organs. The aorta was slightly cut, and a polyethylene catheter was inserted (from cephalad to caudad) into its lumen to reach the aortic valve. The right atrium was punctured, and another catheter was inserted to carry out the perfusate. Both catheters were secured with a suture. A 50 mL syringe filled with heparinized Ringer-Lock buffer containing 20 meq/L K ^+, oxygenated with 95% O2, 5% CO2 at 37°C linked to an infusion pump was attached to the inlet. This solution cleared the heart from blood and clots for 15 minutes; infusion of a Ringer-Lock buffer solution for another 15 minutes cleared the heart from heparin. These steps were followed by the perfusion of a buffer containing 8.25 × 10^−4 nM/L [^125I] […] The perfusate was collected for 20 minutes at specific time intervals (between 0-1, 1-2, 2-3, 3-4, 4-5, 5-6, 6-7, 7-8, 8-9, 9-10, 10–12, 12–15, 15–20 minutes); after each collection, 500 μL of the sample was put in a liquid scintillation vial containing 4 mL of Ecolume scintillation cocktail, which was later assayed for radioactivity by a liquid scintillation analyzer. […]

[9] = test system: nitric oxide synthase production by endothelial cells; conditions: ref 28 (Dong et al.); cited from earlier work
Description: as §3

[10] = target: T2, GLP-1 receptor at the cardiomyocytes (Rattus norvegicus, UniProt P32301); assay: Perfusion of rat heart with ^125I-GLP-1: binding at the cardiomyocytes (CHAPS-treated); parameters: species or system rat (male Sprague-Dawley); conditions: STZ-diabetic rats, one month of treatment, compared with diabetic (D) and normal (N)
T2 construct: from tissue; host or cells: in situ perfused heart of male Sprague-Dawley rats (normal, streptozotocin-diabetic and treated groups)
T2 sequence (P32301 22-463): T1 sequence (P32301 22-463)
Experimental: as §4

[11] = test system: type 2 diabetic mice; conditions: cited from earlier work
[12] = in vivo; cited from earlier work; remark: listed apart in the source
Description: The intravenous injection of streptozotocin (STZ)—a glucosamine-nitrosourea antibiotic with structural similarity to glucose that is readily taken up by the pancreatic β cells—causes β cells toxicity and ultimately necrosis, leading to deficiency in insulin secretion. The use of Streptozotocin to induce type 1 diabetes in rats is advantageous, because it is easy, fast, and the effect of diabetes on the heart can be evaluated. Our aim was to assess the long-term effects of treatments on ...

Exendin-4: GLP-1 analogue, GLP-1 receptor agonist (Sigma); group DE, 0.03 μg/kg ip bid
effect of treatment on blood glucose level [1]: Although not significant, Exendin-4 treatment showed slight improvement
body weight vs diabetic untreated [2]: significant increase in their body weight
effect of treatment on plasma GLP-1 level [3]: normalized

glucagon-like peptide-1 [GLP-1]
vasodilation on GLP-1 infusion [4]: induce vasodilation
vasodilation on binding to GLP-1 receptors [5]: induce vasodilation
physiologic half-life [6]: very short physiologic half-life

COCCCOc1cc(C[C@@H](C[C@H](N)[C@@H](O)C[C@H](C(=O)NCC(C)(C)C(N)=O)C(C)C)C(C)C)ccc1OC [Aliskiren]
left ventricular hypertrophy [7]: reduce left ventricular hypertrophy as efficiently as angiotensin receptor blockers (ARBs)
effect of treatment on GLP-1 binding affinity (τ) at the coronary endothelium ([8]; STZ-diabetic rats, one month of treatment, compared with diabetic (D) and normal (N)): did not alter τ from diabetics in the CE; also recorded: no significant change in its affinity; also recorded: did not ameliorate it
effect of treatment on K d of GLP-1 at the coronary endothelium ([8]; treated STZ-diabetic rats compared to the normal): extremely significant increase in K d constant
fraction of treated rats with normal blood glucose levels ([1]; Aliskiren 50 mg/kg oral qd, after one month): 12.5%
effect of treatment on blood glucose level [1]: significantly decreased blood glucose levels compared to the untreated
nitric oxide synthase production by endothelial cells [9]: significantly restored
effect of treatment on plasma GLP-1 level [3]: normalized
effect of treatment on GLP-1 binding affinity (τ) at the cardiomyocytes [10]: did not lower the affinity
insulin sensitivity [11]: improves insulin sensitivity

Insulin glargine
duration of action [12]: < 24 h
